Experimental data as given in publication PMC11882969 (Nature Communications, 2025).
Where “and” joins values, the source holds several entries; their conditions need not be identical. Identical values can stand only once. Like-named read-outs stand apart in the source and are kept apart here.

Experiments:
CB1 (rCB1) [1] = biological target: T1, CB1 (rCB1) (Rattus norvegicus, UniProt P20272); assay: Single-point radioligand displacement screen; assay type: binding; settings: 10 µM, 1 µM or 300 nM by cell colour (not visible)
hCB1 = hCB1 (Homo sapiens, UniProt P21554); assay: bioSensAll ebBRET signaling profiling, hCB1; assay type: cell-based; design: host or cells: HEK293SL cells, transient PEI transfection; settings: for Gi1 hCB1 response: Gi1 biosensor; for Gi1 hCB1 / GoB hCB1: single replicate values, FigS6a; for EC50: read-out: EC50 [95% CI]; for Emax: normalized to CP-55,940
CB1 (rCB1) [2] = biological target: T1, CB1 (rCB1); assay: Radioligand competition binding, [3H]-CP-55,940, rat brain membranes

T1 sequence (P20272 whole entry): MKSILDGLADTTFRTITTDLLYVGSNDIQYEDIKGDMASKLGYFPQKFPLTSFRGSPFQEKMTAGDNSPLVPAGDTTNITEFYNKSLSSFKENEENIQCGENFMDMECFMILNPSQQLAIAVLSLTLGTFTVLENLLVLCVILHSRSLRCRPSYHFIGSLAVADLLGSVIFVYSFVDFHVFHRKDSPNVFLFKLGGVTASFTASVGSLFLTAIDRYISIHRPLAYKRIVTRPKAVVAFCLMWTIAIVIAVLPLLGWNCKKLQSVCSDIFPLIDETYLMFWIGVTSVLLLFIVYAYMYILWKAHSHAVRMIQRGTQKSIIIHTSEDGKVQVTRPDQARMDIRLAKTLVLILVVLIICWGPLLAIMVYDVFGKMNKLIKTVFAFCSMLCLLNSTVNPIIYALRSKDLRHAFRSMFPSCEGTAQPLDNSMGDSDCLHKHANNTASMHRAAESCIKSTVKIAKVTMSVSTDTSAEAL
Chain of hCB1 (P21554 whole entry): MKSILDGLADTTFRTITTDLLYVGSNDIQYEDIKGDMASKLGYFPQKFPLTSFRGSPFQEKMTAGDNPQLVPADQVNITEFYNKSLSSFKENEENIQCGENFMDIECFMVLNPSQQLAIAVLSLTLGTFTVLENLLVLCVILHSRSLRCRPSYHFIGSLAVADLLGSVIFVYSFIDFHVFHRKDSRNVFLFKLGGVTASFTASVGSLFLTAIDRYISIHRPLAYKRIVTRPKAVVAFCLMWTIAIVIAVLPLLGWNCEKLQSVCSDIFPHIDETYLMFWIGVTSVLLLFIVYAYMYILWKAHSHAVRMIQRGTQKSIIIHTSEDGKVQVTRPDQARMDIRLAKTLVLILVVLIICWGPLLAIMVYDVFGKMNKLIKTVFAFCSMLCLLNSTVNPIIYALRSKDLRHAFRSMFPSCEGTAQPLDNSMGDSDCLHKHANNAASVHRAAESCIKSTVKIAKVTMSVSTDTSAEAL

Cc1cc(C(=O)NC(c2ccccc2)c2ccco2)nn1-c1cccc(C#N)c1 (stereo not drawn) [‘12565]
% 1H-CP-55,940 displacement (mean) from single point screen (CB1 (rCB1) [1]): 61.12%
Gi1 hCB1 response (hCB1; Log [Compound] (M) -4.22186): 51.3091
Gi1 hCB1 response (hCB1; Log [Compound] (M) -4.63927): 50.5034
Gi1 hCB1 response (hCB1; Log [Compound] (M) -5.05788): 44.5052
Gi1 hCB1 response (hCB1; Log [Compound] (M) -5.47381): 43.9457
Gi1 hCB1 response (hCB1; Log [Compound] (M) -5.89285): 42.849
Gi1 hCB1 response (hCB1; Log [Compound] (M) -6.31878): 33.2921
Gi1 hCB1 response (hCB1; Log [Compound] (M) -6.72585): 46.4524
Gi1 hCB1 response (hCB1; Log [Compound] (M) -7.14267): 19.6618
Gi1 hCB1 response (hCB1; Log [Compound] (M) -7.55284): 13.0593
Gi1 hCB1 response (hCB1; Log [Compound] (M) -8): 11.2688
Gi1 hCB1 response (hCB1; Log [Compound] (M) -8.22186): -3.794
Gi1 hCB1 response (hCB1; Log [Compound] (M) -8.39794): -8.2031
Gi1 hCB1 response (hCB1; Log [Compound] (M) -8.68787): -4.197
Gi1 hCB1 response (hCB1; Log [Compound] (M) -9.15521): -12.5675
Gi1 hCB1 response (hCB1; Log [Compound] (M) -9.61989): -10.195
Gi1 hCB1 response (hCB1; Log [Compound] (M) -10.0969): -5.294
Gi1 hCB1 response (hCB1; Log [Compound] (M) -10.5529): 14.9617
Gi1 hCB1 response (hCB1; Log [Compound] (M) -11.0177): -2.317
Gi1 hCB1 response (hCB1; Log [Compound] (M) -11.4949): 8.247
Gi1 hCB1 response (hCB1; Log [Compound] (M) -11.9208): -0.5263
Gi1 hCB1 response (hCB1; Log [Compound] (M) -12.3979): -10.9113
Gi1 hCB1 response (hCB1; Log [Compound] (M) -12.8861): -6.234
Gi1 hCB1 response (hCB1; Log [Compound] (M) -13, individual replicate values): 1.98 and -17.5585
Gi1 hCB1 (hCB1; Log [Compound] (M) -4.22186): 25.3414
GoB hCB1 (hCB1; Log [Compound] (M) -4.22186): 15.9048
Gi1 hCB1 (hCB1; Log [Compound] (M) -4.63927): 29.288
GoB hCB1 (hCB1; Log [Compound] (M) -4.63927): 18.0268
Gi1 hCB1 (hCB1; Log [Compound] (M) -5.05788): 28.8564
GoB hCB1 (hCB1; Log [Compound] (M) -5.05788): 28.8528
Gi1 hCB1 (hCB1; Log [Compound] (M) -5.47381): 27.1451
GoB hCB1 (hCB1; Log [Compound] (M) -5.47381): 28.2953
Gi1 hCB1 (hCB1; Log [Compound] (M) -5.89285): 25.0947
GoB hCB1 (hCB1; Log [Compound] (M) -5.89285): 22.0012
Gi1 hCB1 (hCB1; Log [Compound] (M) -6.31878): 21.0402
GoB hCB1 (hCB1; Log [Compound] (M) -6.31878): 26.4251
Gi1 hCB1 (hCB1; Log [Compound] (M) -6.72585): 17.7873
GoB hCB1 (hCB1; Log [Compound] (M) -6.72585): 22.6665
Gi1 hCB1 (hCB1; Log [Compound] (M) -7.14267): 12.2681
GoB hCB1 (hCB1; Log [Compound] (M) -7.14267): 15.689
Gi1 hCB1 (hCB1; Log [Compound] (M) -7.55284): 6.888
GoB hCB1 (hCB1; Log [Compound] (M) -7.55284): 4.557
Gi1 hCB1 (hCB1; Log [Compound] (M) -8): 2.772
GoB hCB1 (hCB1; Log [Compound] (M) -8): 1.9857
Gi1 hCB1 (hCB1; Log [Compound] (M) -8.22186): 1.492
GoB hCB1 (hCB1; Log [Compound] (M) -8.22186): -4.416
Gi1 hCB1 (hCB1; Log [Compound] (M) -8.39794): 0.9061
GoB hCB1 (hCB1; Log [Compound] (M) -8.39794): -0.9096
Gi1 hCB1 (hCB1; Log [Compound] (M) -8.68787): 1.4611
GoB hCB1 (hCB1; Log [Compound] (M) -8.68787): -4.902
Gi1 hCB1 (hCB1; Log [Compound] (M) -9.15521): 0.4436
GoB hCB1 (hCB1; Log [Compound] (M) -9.15521): -2.744
Gi1 hCB1 (hCB1; Log [Compound] (M) -9.61989): -1.406
GoB hCB1 (hCB1; Log [Compound] (M) -9.61989): -3.949
Gi1 hCB1 (hCB1; Log [Compound] (M) -10.0969): 0.8444
GoB hCB1 (hCB1; Log [Compound] (M) -10.0969): -5.531
Gi1 hCB1 (hCB1; Log [Compound] (M) -10.5529): -0.3889
GoB hCB1 (hCB1; Log [Compound] (M) -10.5529): 0.1334
Gi1 hCB1 (hCB1; Log [Compound] (M) -11.0177): -1.067
GoB hCB1 (hCB1; Log [Compound] (M) -11.0177): 0.2053
Gi1 hCB1 (hCB1; Log [Compound] (M) -11.4949): 0.2894
GoB hCB1 (hCB1; Log [Compound] (M) -11.4949): -1.809
Gi1 hCB1 (hCB1; Log [Compound] (M) -11.9208): -1.221
GoB hCB1 (hCB1; Log [Compound] (M) -11.9208): -1.251
Gi1 hCB1 (hCB1; Log [Compound] (M) -12.3979): 0.4282
GoB hCB1 (hCB1; Log [Compound] (M) -12.3979): 0.1334
Gi1 hCB1 (hCB1; Log [Compound] (M) -12.8861): 1.43
GoB hCB1 (hCB1; Log [Compound] (M) -12.8861): -3.211
Gi1 hCB1 (hCB1; Log [Compound] (M) -13): 1.507 and -0.6201
GoB hCB1 (hCB1; Log [Compound] (M) -13): -3.409 and -2.942
pEC50 [95% CI] (hCB1; hCB1 Gi1): 7.0 [6.9 – 7.1]
pEC50 [95% CI] (hCB1; hCB1 GoB): 7.4 [7.1 – 7.6]
pEC50 [95% CI] (hCB1; hCB1 Gz): 7.3 [6.9 – 7.7]
EC50 (hCB1; hCB1 Gi1): 104 nM
EC50 (hCB1; hCB1 GoB): 44.8 nM
EC50 (hCB1; hCB1 Gz): 54.6 nM
Emax (hCB1; read-out: Emax [95% CI], hCB1 Gi1): 28%
Emax (hCB1; read-out: Emax [95% CI], hCB1 GoB): 25%
Emax (hCB1; read-out: Emax [95% CI], hCB1 Gz): 51%
pKi [95% CI] (CB1 (rCB1) [2]; rCB1): 6.5 [6.3 – 6.7]
Ki (CB1 (rCB1) [2]; read-out: Ki [95% CI], rCB1, [3H]-CP-55,940): 301 nM
